Results reported in US8318723B2, “Pyrazine compounds, their use and methods of preparation” (Boehringer Ingelheim International GmbH, priority 2006, dated 2012).

Target: PIM-2 (Homo sapiens, UniProt Q9P1W9)
Assay: PIM-2 assay, single-concentration screen (luciferase-luciferin ATP depletion)
Assay type: biochemical
Details: percent of control at 3 μg/mL final assay concentration, 1 μM ATP, 5 μM peptide substrate, 60 minutes
Method: The activity of PIM-2 is measured using luciferase-luciferin based ATP detection reagent to quantify ATP depletion resulting from kinase-catalyzed phosphoryl transfer to a peptide substrate. The screen utilizes the Zymark Allegro UHTS system to dispense reagents, buffers and test compounds. To Greiner 384-well, white Lumitrac-200 plates, 20 μL/well of 20 nM PIM-2 (10 nM final assay concentration) in assay buffer (25 mM HEPES, pH 7.5, 10 mM MgCl2, 50 mM KCl, 0.2% CHAPS, 100 μM Na3VO4, 0.2% BSA and 200 μM TCEP) is delivered, followed by 10 μL/well of test compounds (3 μg/mL final assay concentration in 1% DMSO) that were previously dissolved in DMSO and diluted in assay buffer. A 10 μL volume of a solution containing 4 μM ATP (1 μM final assay concentration) and 20 μM peptide substrate (Biotin-[…], 5 μM final assay concentration) diluted in assay buffer is added to each well and the contents of the wells are mixed. […] The assay plates are read on an Analyst (Molecular Devices) in luminescence mode following additional 15 minutes of incubation at room temperature. Luminescence signals are converted to percent of control (POC) values using the formula: POC=(BCTRL−Signal)÷(BCTRL−PCTRL), where Signal is the test well signal, BCTRL is the average of background control well signals on the plate and PCTRL is the average of positive control well signals on the plate.

Chain of PIM-2 (Q9P1W9 whole entry): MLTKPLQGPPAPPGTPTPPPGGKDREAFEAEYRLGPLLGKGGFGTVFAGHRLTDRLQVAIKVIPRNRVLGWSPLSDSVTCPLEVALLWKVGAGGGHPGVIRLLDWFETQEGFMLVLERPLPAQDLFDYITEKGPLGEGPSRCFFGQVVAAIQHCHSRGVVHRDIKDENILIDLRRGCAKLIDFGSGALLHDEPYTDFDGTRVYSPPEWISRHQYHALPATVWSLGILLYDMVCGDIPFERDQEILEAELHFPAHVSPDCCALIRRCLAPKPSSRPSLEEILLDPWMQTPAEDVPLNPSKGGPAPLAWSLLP

- POC @ 3 μg/mL: 63 POC @ 3 μg/mL
Structure (SMILES): CN1CCCN(c2cncc(-c3cccc(/C=C/C(=O)NCCO)c3)n2)CC1 [compound 45, (E)-N-(2-Hydroxy-ethyl)-3-{3-[6-(4-methyl-perhydro-1,4-diazepin-1-yl)-pyrazin-2-yl]-phenyl}-acrylamide]
